In ChEMBL document CHEMBL4680122, “Design, synthesis and biological evaluation of new Axl kinase inhibitors containing 1,3,4-oxadiazole acetamide moiety as novel linker” (Eur J Med Chem, 2020):

Experiments:
[1] = tested on: HT-29; experiment: Antiproliferative activity against human HT-29 cells measured after 72 hrs by MTT assay; conditions: HT-29, 72 h
[2] = tested on: PC-3; experiment: cells; conditions: Homo sapiens, PC-3, 72 h
Description: Antiproliferative activity against human PC-3 cells measured after 72 hrs by MTT assay

[3] = tested on: A549; experiment: cells; conditions: Homo sapiens, A549, 72 h
Description: Antiproliferative activity against human A549 cells measured after 72 hrs by MTT assay

[4] = tested on: MCF7; experiment: Antiproliferative activity against human MCF7 cells measured after 72 hrs by MTT assay; format: functional, cell-based; conditions: MCF7, 72 h
[5] = molecular target: Tyrosine-protein kinase receptor UFO (Homo sapiens) (UniProt P30530); conditions: dose 100.0 nM, time 1.0 hrs
Tyrosine-protein kinase receptor UFO (Homo sapiens), sequence (P30530 whole entry): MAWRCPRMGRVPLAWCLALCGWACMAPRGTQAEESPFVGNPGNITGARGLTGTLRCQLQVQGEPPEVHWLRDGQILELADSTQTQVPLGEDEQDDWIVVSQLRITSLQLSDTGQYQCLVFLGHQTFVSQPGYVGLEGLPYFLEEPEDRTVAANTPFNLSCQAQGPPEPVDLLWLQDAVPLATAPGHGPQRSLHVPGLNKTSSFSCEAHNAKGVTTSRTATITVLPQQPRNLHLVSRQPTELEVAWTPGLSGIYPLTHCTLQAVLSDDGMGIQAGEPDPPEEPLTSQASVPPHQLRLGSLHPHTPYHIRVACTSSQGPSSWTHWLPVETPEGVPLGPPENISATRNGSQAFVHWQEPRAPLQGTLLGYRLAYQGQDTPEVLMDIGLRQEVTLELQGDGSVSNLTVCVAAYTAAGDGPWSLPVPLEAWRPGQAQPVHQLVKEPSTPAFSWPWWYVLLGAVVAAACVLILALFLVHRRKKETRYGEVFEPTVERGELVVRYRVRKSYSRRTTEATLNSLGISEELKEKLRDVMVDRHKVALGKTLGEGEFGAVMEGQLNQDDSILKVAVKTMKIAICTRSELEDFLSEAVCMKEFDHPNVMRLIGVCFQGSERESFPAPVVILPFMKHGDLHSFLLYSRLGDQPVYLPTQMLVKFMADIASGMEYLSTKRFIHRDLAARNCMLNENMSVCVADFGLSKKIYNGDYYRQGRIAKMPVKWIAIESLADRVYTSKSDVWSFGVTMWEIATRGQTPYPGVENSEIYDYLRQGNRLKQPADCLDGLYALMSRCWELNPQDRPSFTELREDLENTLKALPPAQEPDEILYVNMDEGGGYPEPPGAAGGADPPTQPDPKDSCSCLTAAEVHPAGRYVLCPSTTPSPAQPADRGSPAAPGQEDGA

IC50 [1] [nM] | IC50 [2] [nM] | IC50 [3] [nM] | IC50 [4] [nM] | inhibition [5] [%] | SMILES
7810 | 4730 | 920 |  |  | COc1cc2c(Oc3ccc(NC(=O)Cc4nnc(-c5ccccc5)o4)cc3F)ccnc2cc1OCCCN1CCC(C)CC1
648 | 1490 | 420 | 370 |  | COc1cc2c(Oc3ccc(NC(=O)C(C)(C)c4nnc(-c5ccc(F)cc5)o4)cc3F)ccnc2cc1OCCCN1CCC(C)CC1
1160 | 330 | 106 |  |  | COc1cc2c(Oc3ccc(NC(=O)Cc4nc(-c5ccc(F)cc5)no4)cc3F)ccnc2cc1OCCCN1CCC(C)CC1
1960 | 1700 | 75 | 1630 |  | COc1cc2c(Oc3ccc(NC(=O)C(C)c4nnc(-c5ccc(F)cc5)o4)cc3F)ccnc2cc1OCCCN1CCN(C)CC1 (centres undefined)
2520 | 570 | 254 |  |  | COc1cc2c(Oc3ccc(NC(=O)Cc4ncc(-c5ccc(F)cc5)o4)cc3F)ccnc2cc1OCCCN1CCN(C)CC1
871 | 1760 | 215 | 470 |  | COc1cc2c(Oc3ccc(NC(=O)C(C)(C)c4nnc(-c5ccc(F)cc5)o4)cc3F)ccnc2cc1OCCCN1CCCCC1
4560 | 8250 | 3750 |  |  | COc1cc2nccc(Oc3ccc(NC(=O)C4(C(=O)Nc5ccc(F)cc5)CC4)cc3)c2cc1OC [CABOZANTINIB]
2460 | 360 | 630 |  |  | COc1cc2c(Oc3ccc(NC(=O)Cc4nnc(-c5ccc(Cl)cc5)o4)cc3F)ccnc2cc1OCCCN1CCC(C)CC1
7520 | 410 | 1560 |  |  | COc1ccc(-c2nnc(CC(=O)Nc3ccc(Oc4ccnc5cc(OCCCN6CCC(C)CC6)c(OC)cc45)c(F)c3)o2)cc1
2480 | 1790 | 275 | 1600 |  | COc1cc2c(Oc3ccc(NC(=O)C(C)(C)c4nnc(-c5ccc(F)cc5)o4)cc3F)ccnc2cc1OCCCN1CCOCC1
4300 | 680 | 103 |  |  | COc1cc2c(Oc3ccc(NC(=O)Cc4nnc(-c5ccc(F)cc5)o4)cc3F)ccnc2cc1OCCCN1CCOCC1
442 | 2180 | 120 | 740 |  | COc1cc2c(Oc3ccc(NC(=O)C4(c5nnc(-c6ccc(F)cc6)o5)CC4)cc3F)ccnc2cc1OCCCN1CCC(C)CC1
9330 | 13000 | 1660 | > 100000 |  | COc1cc2c(Oc3ccc(NC(=O)C4(c5nnc(-c6ccc(F)cc6)o5)CC4)cc3F)ccnc2cc1OCCCN1CCOCC1
779 | 2340 | 150 | 310 |  | COc1cc2c(Oc3ccc(NC(=O)C4(c5nnc(-c6ccc(F)cc6)o5)CC4)cc3F)ccnc2cc1OCCCN1CCCC1
1540 | 970 | 38 | 2220 |  | CCC(C(=O)Nc1ccc(Oc2ccnc3cc(OCCCN4CCN(C)CC4)c(OC)cc23)c(F)c1)c1nnc(-c2ccc(F)cc2)o1 (centres undefined)
> 100000 | 21900 | 5590 |  |  | COc1cc2nccc(Oc3ccc(NC(=O)c4ncc(-c5ccc(F)cc5)o4)cc3)c2cc1OC
2540 | 1180 | 52 | 1050 |  | COc1cc2c(Oc3ccc(NC(=O)C(C)c4nnc(-c5ccc(F)cc5)o4)cc3F)ccnc2cc1OCCCN1CCOCC1 (centres undefined)
570 | 1420 | 78 | 1040 |  | CCC(C(=O)Nc1ccc(Oc2ccnc3cc(OCCCN4CCCC4)c(OC)cc23)c(F)c1)c1nnc(-c2ccc(F)cc2)o1 (centres undefined)
1080 | 1470 | 92 | 410 |  | CCC(C(=O)Nc1ccc(Oc2ccnc3cc(OCCCN4CCCCC4)c(OC)cc23)c(F)c1)c1nnc(-c2ccc(F)cc2)o1 (centres undefined)
1890 | 720 | 240 |  |  | COc1cc2c(Oc3ccc(NC(=O)c4ncc(-c5ccc(F)cc5)o4)cc3)ccnc2cc1OCCCN1CCC(C)CC1
2020 | 2530 | 49 | 2690 |  | CCC(C(=O)Nc1ccc(Oc2ccnc3cc(OCCCN4CCOCC4)c(OC)cc23)c(F)c1)c1nnc(-c2ccc(F)cc2)o1 (centres undefined)

IC50 [1] [nM] | IC50 [2] [nM] | IC50 [3] [nM] | IC50 [4] [nM] | inhibition [5] [%] | SMILES
813 | 400 | 813 |  |  | COc1cc2c(Oc3ccc(NC(=O)Cc4nnc(-c5ccc(F)cc5)o4)cc3F)ccnc2cc1OCCCN1CCCCC1
1270 | 1080 | 76 | 2700 |  | COc1cc2c(Oc3ccc(NC(=O)C(C)c4nnc(-c5ccc(F)cc5)o4)cc3F)ccnc2cc1OCCCN1CCCC1 (centres undefined)
6380 | 1040 | 870 |  |  | COc1cc2c(Oc3ccc(NC(=O)c4nc(-c5ccc(F)cc5)no4)cc3)ccnc2cc1OCCCN1CCC(C)CC1
13700 | 2410 | 596 |  |  | COc1cc2c(Oc3ccc(NC(=O)Cc4ncc(-c5ccc(F)cc5)o4)cc3F)ccnc2cc1OCCCN1CCOCC1
554 | 400 | 119 | 460 |  | CCC(C(=O)Nc1ccc(Oc2ccnc3cc(OCCCN4CCC(C)CC4)c(OC)cc23)c(F)c1)c1nnc(-c2ccc(F)cc2)o1 (centres undefined)
238 | 280 | 82 |  |  | COc1cc2c(Oc3ccc(NC(=O)Cc4nnc(-c5ccc(F)cc5)o4)cc3F)ccnc2cc1OCCCN1CCC(C)CC1
2370 | 210 | 91 |  |  | COc1cc2c(Oc3ccc(NC(=O)Cc4nnc(-c5ccc(F)cc5)o4)cc3F)ccnc2cc1OCCCN1CCCC1
3480 | 410 | 71 |  |  | COc1cc2c(Oc3ccc(NC(=O)Cc4nnc(-c5ccc(F)cc5)o4)cc3F)ccnc2cc1OCCCN1CCN(C)CC1
7890 | 3810 | 2730 |  |  | COc1cc2c(Oc3ccc(NC(=O)c4nnc(-c5ccc(F)cc5)o4)cc3)ccnc2cc1OCCCN1CCC(C)CC1
109 | 540 | 105 |  |  | COc1cc2c(Oc3ccc(NC(=O)Cc4ncc(-c5ccc(F)cc5)o4)cc3F)ccnc2cc1OCCCN1CCC(C)CC1
1030 | 1050 | 263 |  |  | COc1cc2c(Oc3ccc(NC(=O)C(C)(C)c4nnc(-c5ccc(F)cc5)o4)cc3F)ccnc2cc1OCCCN1CCCC1
52300 | > 100000 | 5140 |  |  | COc1cc2nccc(Oc3ccc(NC(=O)c4nnc(-c5ccc(F)cc5)o4)cc3)c2cc1OC
39700 | > 100000 | 10300 |  |  | COc1cc2nccc(Oc3ccc(NC(=O)c4nc(-c5ccc(F)cc5)no4)cc3)c2cc1OC
1080 | 1900 | 597 | 2480 |  | COc1cc2c(Oc3ccc(NC(=O)C(C)(C)c4nnc(-c5ccc(F)cc5)o4)cc3F)ccnc2cc1OCCCN1CCN(C)CC1
1000 | 1260 | 86 | 1040 |  | COc1cc2c(Oc3ccc(NC(=O)C(C)c4nnc(-c5ccc(F)cc5)o4)cc3F)ccnc2cc1OCCCN1CCCCC1 (centres undefined)
4170 | 340 | 178 |  |  | COc1cc2c(Oc3ccc(NC(=O)Cc4ncc(-c5ccc(F)cc5)o4)cc3F)ccnc2cc1OCCCN1CCCC1
1050 | 1670 | 143 | 2610 |  | COc1cc2c(Oc3ccc(NC(=O)C4(c5nnc(-c6ccc(F)cc6)o5)CC4)cc3F)ccnc2cc1OCCCN1CCN(C)CC1
> 100000 | 29400 | 40400 |  |  | COc1cc2nccc(Oc3ccc(NC(=O)c4cc(-c5ccc(F)cc5)on4)cc3)c2cc1OC
583 | 680 | 102 |  |  | COc1cc2c(Oc3ccc(NC(=O)Cc4nnc(-c5ccc(Br)cc5)o4)cc3F)ccnc2cc1OCCCN1CCC(C)CC1
1040 | 530 | 1040 |  |  | COc1cc2c(Oc3ccc(NC(=O)Cc4ncc(-c5ccc(F)cc5)o4)cc3F)ccnc2cc1OCCCN1CCCCC1
 | 810 | 210 | 2000 | 88 | COc1cc2c(Oc3ccc(NC(=O)C4(C(=O)Nc5ccc(F)cc5)CC4)cc3F)ccnc2cc1OCCCN1CCOCC1 [FORETINIB]
